# In ChEMBL document CHEMBL1201861, “Genomics of Drug Sensitity in Cancer screening data, Wellcome Trust Sanger Institute”:
# Assays:
# Assay in all cases: cells
# NKM-1 = assay type: functional, cell-based; details: Homo sapiens;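 note: growth inhibition of NKM-1 cells, read out with a cell viability assay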
# Description: SANGER: Inhibition of human NKM-1 cell growth in a cell viability assay.
# G-401 = assay type: functional, cell-based, Homo sapiens; details: Homo sapiens, G-401
# Description: SANGER: Inhibition of human G-401 cell growth in a cell viability assay.
# HDLM-2 = assay type: functional, cell-based; details: Homo sapiens;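 note: cell viability assay measuring suppression of HDLM-2 proliferation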
# Description: SANGER: Inhibition of human HDLM-2 cell growth in a cell viability assay.
# HAL-01 = assay type: functional, cell-based; details: Homo sapiens;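 note: growth inhibition of human HAL-01 cells, read out with a cell viability assay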
# Description: SANGER: Inhibition of human HAL-01 cell growth in a cell viability assay.
# COLO-684 = assay type: functional, cell-based; details: Homo sapiens
# Description: SANGER: Inhibition of human COLO-684 cell growth in a cell viability assay.
# SNU1 = assay type: functional, cell-based; details: Homo sapiens;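 note: growth inhibition of human NCI-SNU-1 cells, measured with a cell viability assay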
# Description: SANGER: Inhibition of human NCI-SNU-1 cell growth in a cell viability assay.
# COLO-679 = assay type: functional, cell-based, Homo sapiens; details: Homo sapiens, COLO-679
# Description: SANGER: Inhibition of human COLO-679 cell growth in a cell viability assay.
# ME-180 = assay type: functional, cell-based; details: Homo sapiens;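 note: cell viability assay measuring growth inhibition of ME-180 cells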
# Description: SANGER: Inhibition of human ME-180 cell growth in a cell viability assay.
# OVCAR-8 = assay type: functional, cell-based, Homo sapiens; details: Homo sapiens, OVCAR-8;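 note: growth inhibition of human OVCAR-8 cells, read out by a cell viability assay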
# Description: SANGER: Inhibition of human OVCAR-8 cell growth in a cell viability assay.
# CCRF-CEM = assay type: functional, cell-based; details: Homo sapiens;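 note: inhibition of CCRF-CEM cell growth, measured by a cell viability assay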
# Description: SANGER: Inhibition of human CCRF-CEM cell growth in a cell viability assay.
# COLO-680N = assay type: functional, cell-based, Homo sapiens; details: Homo sapiens, COLO-680N;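 note: cell viability assay used to measure inhibition of COLO-680N cell growth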
# Description: SANGER: Inhibition of human COLO-680N cell growth in a cell viability assay.
# GMS-10 = assay type: functional, cell-based, Homo sapiens; details: Homo sapiens, GMS-10;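 note: growth inhibition of GMS-10 cells, read out as cell viability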
# Description: SANGER: Inhibition of human GMS-10 cell growth in a cell viability assay.
# H4 = assay type: functional, cell-based; details: Homo sapiens
# Description: SANGER: Inhibition of human H4 cell growth in a cell viability assay.
# BV-173 = assay type: functional, cell-based; details: Homo sapiens
# Description: SANGER: Inhibition of human BV-173 cell growth in a cell viability assay.
# COLO-800 = assay type: functional, cell-based, Homo sapiens; details: Homo sapiens, COLO-800;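 note: growth inhibition of COLO-800 cells, read out with a cell viability assay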
# Description: SANGER: Inhibition of human COLO-800 cell growth in a cell viability assay.
# NB69 = assay type: functional, cell-based, Homo sapiens; details: Homo sapiens, NB69;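 note: growth inhibition of NB69 cells, determined by a cell viability assay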
# Description: SANGER: Inhibition of human NB69 cell growth in a cell viability assay.
# HOP-92 = assay type: functional, cell-based, Homo sapiens; details: Homo sapiens, HOP-92;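 note: cell viability readout, with IC50 reflecting inhibition of HOP-92 cell growth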
# Description: SANGER: Inhibition of human HOP-92 cell growth in a cell viability assay.
# TE-5 = assay type: functional, cell-based, Homo sapiens; details: Homo sapiens, TE-5;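 note: inhibition of cell growth, read out by a cell viability assay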
# Description: SANGER: Inhibition of human TE-5 cell growth in a cell viability assay.
# HCC38 = assay type: functional, cell-based, Homo sapiens; details: Homo sapiens, HCC38;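 note: cell viability assay on the human HCC38 cell line, with IC50 marking the concentration that inhibits cell growth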
# Description: SANGER: Inhibition of human HCC38 cell growth in a cell viability assay.
# NCI-H650 = assay type: functional, cell-based, Homo sapiens; details: Homo sapiens, NCI-H650;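 note: growth inhibition of NCI-H650 cells, read out by a viability assay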
# Description: SANGER: Inhibition of human NCI-H650 cell growth in a cell viability assay.
# LCLC-103H cell line = assay type: functional, cell-based, Homo sapiens; details: Homo sapiens, LCLC-103H
# Description: SANGER: Inhibition of human LCLC-103H cell growth in a cell viability assay.
# KY821 = assay type: functional, cell-based; details: Homo sapiens;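 note: growth inhibition of human KY821 cells, read out by a cell viability assay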
# Description: SANGER: Inhibition of human KY821 cell growth in a cell viability assay.
# HT-29 = assay type: functional, cell-based, Homo sapiens; details: Homo sapiens, HT-29;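 note: growth inhibition of human HT-29 cells, read out by a cell viability assay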
# Description: SANGER: Inhibition of human HT-29 cell growth in a cell viability assay.
# DJM-1 = assay type: functional, cell-based, Homo sapiens; details: Homo sapiens, DJM-1;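 note: growth inhibition of human DJM-1 cells, read out by a cell viability assay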
# Description: SANGER: Inhibition of human DJM-1 cell growth in a cell viability assay.
# HTC-C3 = assay type: functional, cell-based, Homo sapiens; details: Homo sapiens, HTC-C3;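 note: inhibition of cell growth, read out with a cell viability assay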
# Description: SANGER: Inhibition of human HTC-C3 cell growth in a cell viability assay.
# COLO-741 = assay type: functional, cell-based, Homo sapiens; details: Homo sapiens, COLO-741
# Description: SANGER: Inhibition of human COLO-741 cell growth in a cell viability assay.
# HuP-T4 = assay type: functional, cell-based, Homo sapiens; details: Homo sapiens, HuP-T4;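 note: cell viability assay measuring how much HuP-T4 cell growth is inhibited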
# Description: SANGER: Inhibition of human HuP-T4 cell growth in a cell viability assay.
# NCI-H510A = assay type: functional, cell-based; details: Homo sapiens;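 note: growth inhibition of NCI-H510A cells, read out with a cell viability assay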
# Description: SANGER: Inhibition of human NCI-H510A cell growth in a cell viability assay.
# NCI-H1395 = assay type: functional, cell-based, Homo sapiens; details: Homo sapiens, NCI-H1395;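 note: cell viability assay read-out quantifying reduced proliferation of human NCI-H1395 cells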
# Description: SANGER: Inhibition of human NCI-H1395 cell growth in a cell viability assay.
# DSH1 = assay type: functional, cell-based, Homo sapiens; details: Homo sapiens, DSH1;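 note: growth inhibition of human DSH1 cells, measured with a cell viability readout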
# Description: SANGER: Inhibition of human DSH1 cell growth in a cell viability assay.
# NCI-H2122 = assay type: functional, cell-based, Homo sapiens; details: Homo sapiens, NCI-H2122;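 note: growth inhibition of the cells, read out with a cell viability assay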
# Description: SANGER: Inhibition of human NCI-H2122 cell growth in a cell viability assay.
# EW-1 = assay type: functional, cell-based, Homo sapiens; details: Homo sapiens, EW-1;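 note: growth inhibition of the human EW-1 cell line, read out by a cell viability assay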
# Description: SANGER: Inhibition of human EW-1 cell growth in a cell viability assay.
# SK-N-AS = assay type: functional, cell-based, Homo sapiens; details: Homo sapiens, SK-N-AS;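 note: growth inhibition of human SK-N-AS cells, measured with a cell viability assay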
# Description: SANGER: Inhibition of human SK-N-AS cell growth in a cell viability assay.
# QIMR-WIL = assay type: functional, cell-based; details: Homo sapiens;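 note: growth inhibition of QIMR-WIL cells, read out with a cell viability assay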
# Description: SANGER: Inhibition of human QIMR-WIL cell growth in a cell viability assay.
# FTC-133 = assay type: functional, cell-based, Homo sapiens; details: Homo sapiens, FTC-133
# LN-405 = assay type: functional, cell-based, Homo sapiens; details: Homo sapiens, LN-405
# Description: SANGER: Inhibition of human LN-405 cell growth in a cell viability assay.
# NEC8 = assay type: functional, cell-based, Homo sapiens; details: Homo sapiens, NEC8;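 note: growth inhibition of human NEC8 cells, read out by a cell viability assay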
# Description: SANGER: Inhibition of human NEC8 cell growth in a cell viability assay.
# SK-N-FI = assay type: functional, cell-based, Homo sapiens; details: Homo sapiens, SK-N-FI;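 note: cell viability assay measuring growth inhibition of human SK-N-FI cells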
# Description: SANGER: Inhibition of human SK-N-FI cell growth in a cell viability assay.
# CGTH-W-1 = assay type: functional, cell-based, Homo sapiens; details: Homo sapiens, CGTH-W-1;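 note: growth inhibition of human CGTH-W-1 cells measured by cell viability assay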
# Description: SANGER: Inhibition of human CGTH-W-1 cell growth in a cell viability assay.
# no-11 = assay type: functional, cell-based, Homo sapiens; details: Homo sapiens;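 note: growth inhibition of human NO-11 cells, read out with a cell viability assay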
# Description: SANGER: Inhibition of human no-11 cell growth in a cell viability assay.
# EFO-21 = assay type: functional, cell-based, Homo sapiens; details: Homo sapiens, EFO-21;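 note: growth inhibition of EFO-21 cells measured with a viability assay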
# Description: SANGER: Inhibition of human EFO-21 cell growth in a cell viability assay.
# IST-SL1 = assay type: functional, cell-based, Homo sapiens; details: Homo sapiens, IST-SL1;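 note: growth inhibition of human IST-SL1 cells, read out with a cell viability assay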
# Description: SANGER: Inhibition of human IST-SL1 cell growth in a cell viability assay.
# EOL1 = assay type: functional, cell-based; details: Homo sapiens;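 note: growth inhibition of EoL-1 cells, read out by a cell viability assay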
# Description: SANGER: Inhibition of human EoL-1-cell cell growth in a cell viability assay.
# OMC-1 = assay type: functional, cell-based, Homo sapiens; details: Homo sapiens, OMC-1;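 note: growth inhibition of the OMC-1 cell line, measured by a cell viability assay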
# Description: SANGER: Inhibition of human OMC-1 cell growth in a cell viability assay.
# OS-RC-2 = assay type: functional, cell-based, Homo sapiens; details: Homo sapiens, OS-RC-2;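 note: growth inhibition of human OS-RC-2 cells, measured by a cell viability assay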
# Description: SANGER: Inhibition of human OS-RC-2 cell growth in a cell viability assay.
# ChaGo-K-1 = assay type: functional, cell-based; details: Homo sapiens;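 note: growth inhibition of ChaGo-K-1 cells, read out with a cell viability assay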
# Description: SANGER: Inhibition of human ChaGo-K-1 cell growth in a cell viability assay.
# Detroit 562 = assay type: functional, cell-based, Homo sapiens; details: Homo sapiens, Detroit 562;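 note: growth inhibition of human Detroit 562 cells, read out by a cell viability assay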
# Description: SANGER: Inhibition of human Detroit562 cell growth in a cell viability assay.
# HCC 2998 = assay type: functional, cell-based, Homo sapiens; details: Homo sapiens, HCC 2998;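 note: growth inhibition of human HCC2998 cells, measured with a cell viability read-out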
# Description: SANGER: Inhibition of human HCC2998 cell growth in a cell viability assay.
# RMG-I = assay type: functional, cell-based, Homo sapiens; details: Homo sapiens, RMG-I;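 note: growth inhibition of human RMG-I cells, read out with a cell viability assay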
# Description: SANGER: Inhibition of human RMG-I cell growth in a cell viability assay.
# MDA-MB-361 = assay type: functional, cell-based, Homo sapiens; details: Homo sapiens, MDA-MB-361
# CTV-1 = assay type: functional, cell-based; details: Homo sapiens;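 note: growth inhibition of the cell line, read out with a cell viability assay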
# Description: SANGER: Inhibition of human CTV-1 cell growth in a cell viability assay.
# KURAMOCHI = assay type: functional, cell-based; details: Homo sapiens;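 note: growth inhibition of KURAMOCHI cells, read out with a cell viability assay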
# Description: SANGER: Inhibition of human KURAMOCHI cell growth in a cell viability assay.
# TGW = assay type: functional, cell-based; details: Homo sapiens;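 note: growth inhibition of human TGW cells, read out with a cell viability assay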
# Description: SANGER: Inhibition of human TGW cell growth in a cell viability assay.
smiles,measurement,setting,value
Nc1ccn([C@@H]2O[C@H](CO)[C@@H](O)[C@@H]2O)c(=O)n1 [CYTARABINE],IC50,NKM-1,1060 nM
same,IC50,G-401,0.758 µM
same,IC50,HDLM-2,> 2 µM
same,IC50,HAL-01,0.328 µM
same,IC50,COLO-684,> 2 µM
same,IC50,SNU1,96.8 nM
same,IC50,COLO-679,> 2000 nM
same,IC50,ME-180,> 2 µM
same,IC50,OVCAR-8,0.211 µM
same,IC50,CCRF-CEM,> 2 µM
same,IC50,COLO-680N,> 2 µM
same,IC50,GMS-10,0.396 µM
same,IC50,H4,274 nM
same,IC50,BV-173,516 nM
same,IC50,COLO-800,0.425 µM
same,IC50,NB69,79.5 nM
same,IC50,HOP-92,0.354 µM
same,IC50,TE-5,0.381 µM
same,IC50,HCC38,1.88 µM
same,IC50,NCI-H650,> 2 µM
same,IC50,LCLC-103H cell line,> 2 µM
same,IC50,KY821,> 2000 nM
same,IC50,HT-29,> 2 µM
same,IC50,DJM-1,> 2 µM
same,IC50,HTC-C3,459 nM
same,IC50,COLO-741,> 2 µM
same,IC50,HuP-T4,237 nM
same,IC50,NCI-H510A,68.3 nM
same,IC50,NCI-H1395,> 2 µM
same,IC50,DSH1,> 2 µM
same,IC50,NCI-H2122,0.43 µM
same,IC50,EW-1,0.139 µM
same,IC50,SK-N-AS,450 nM
same,IC50,QIMR-WIL,> 2000 nM
same,IC50,FTC-133,1.39 µM
same,IC50,LN-405,> 2 µM
same,IC50,NEC8,134 nM
same,IC50,SK-N-FI,> 2 µM
same,IC50,CGTH-W-1,0.182 µM
same,IC50,no-11,> 2 µM
same,IC50,EFO-21,1.55 µM
same,IC50,IST-SL1,> 2 µM
same,IC50,EOL1,803 nM
same,IC50,OMC-1,832 nM
same,IC50,OS-RC-2,1.58 µM
same,IC50,ChaGo-K-1,> 2 µM
same,IC50,Detroit 562,> 2 µM
same,IC50,HCC 2998,> 2 µM
same,IC50,RMG-I,> 2 µM
same,IC50,MDA-MB-361,> 2 µM
same,IC50,CTV-1,0.0847 µM
COc1ccc(C2=N[C@@H](c3ccc(Cl)cc3)[C@@H](c3ccc(Cl)cc3)N2C(=O)N2CCNC(=O)C2)c(OC(C)C)c1 [NUTLIN-3],IC50,NKM-1,1050 nM
same,IC50,G-401,3.36 µM
same,IC50,HDLM-2,> 8 µM
same,IC50,KURAMOCHI,> 8 µM
same,IC50,HAL-01,> 8 µM
same,IC50,COLO-684,> 8 µM
same,IC50,SNU1,3280 nM
same,IC50,COLO-679,> 8000 nM
same,IC50,ME-180,> 8 µM
same,IC50,OVCAR-8,> 8 µM
same,IC50,CCRF-CEM,> 8 µM
same,IC50,COLO-680N,> 8 µM
same,IC50,GMS-10,> 8 µM
same,IC50,H4,663 nM
same,IC50,BV-173,2840 nM
same,IC50,COLO-800,> 8 µM
same,IC50,NB69,2650 nM
same,IC50,HOP-92,> 8 µM
same,IC50,TE-5,> 8 µM
same,IC50,HCC38,> 8 µM
same,IC50,NCI-H650,> 8 µM
same,IC50,LCLC-103H cell line,> 8 µM
same,IC50,KY821,> 8000 nM
same,IC50,HT-29,> 8 µM
same,IC50,DJM-1,> 8 µM
same,IC50,HTC-C3,> 8000 nM
same,IC50,COLO-741,> 8 µM
same,IC50,HuP-T4,> 8000 nM
same,IC50,NCI-H1395,> 8 µM
same,IC50,DSH1,> 8 µM
same,IC50,NCI-H2122,6.59 µM
same,IC50,EW-1,> 8 µM
same,IC50,SK-N-AS,> 8000 nM
same,IC50,QIMR-WIL,1610 nM
same,IC50,FTC-133,> 8 µM
same,IC50,LN-405,> 8 µM
same,IC50,TGW,> 8 µM
same,IC50,NEC8,1220 nM
same,IC50,SK-N-FI,> 8 µM
same,IC50,CGTH-W-1,> 8 µM
same,IC50,no-11,> 8 µM
same,IC50,EFO-21,> 8 µM
same,IC50,IST-SL1,> 8 µM
same,IC50,EOL1,1270 nM
same,IC50,OMC-1,> 8000 nM
same,IC50,OS-RC-2,5.74 µM
same,IC50,ChaGo-K-1,> 8 µM
same,IC50,Detroit 562,> 8 µM
same,IC50,HCC 2998,> 8 µM
same,IC50,RMG-I,> 8 µM
same,IC50,MDA-MB-361,> 8 µM
same,IC50,CTV-1,4.08 µM
O=C(NOCC1CC1)c1ccc(F)c(F)c1Nc1ccc(I)cc1Cl [CI-1040],IC50,NKM-1,> 10000 nM
same,IC50,G-401,> 10 µM
same,IC50,HDLM-2,> 10 µM
same,IC50,KURAMOCHI,> 10 µM
same,IC50,HAL-01,> 10 µM
same,IC50,COLO-684,> 10 µM
same,IC50,SNU1,754 nM
same,IC50,COLO-679,327 nM
same,IC50,ME-180,5.58 µM
same,IC50,OVCAR-8,> 10 µM
same,IC50,CCRF-CEM,> 10 µM
same,IC50,COLO-680N,> 10 µM
same,IC50,GMS-10,> 10 µM
same,IC50,H4,5040 nM
same,IC50,BV-173,1440 nM
same,IC50,COLO-800,> 10 µM
same,IC50,NB69,1780 nM
same,IC50,HOP-92,4.26 µM
same,IC50,TE-5,8.42 µM
same,IC50,HCC38,> 10 µM
same,IC50,NCI-H650,> 10 µM
same,IC50,LCLC-103H cell line,> 10 µM
same,IC50,KY821,379 nM
same,IC50,HT-29,5.98 µM
same,IC50,DJM-1,> 10 µM
same,IC50,HTC-C3,465 nM
same,IC50,COLO-741,3.19 µM
same,IC50,HuP-T4,1180 nM
same,IC50,NCI-H510A,> 10000 nM
same,IC50,NCI-H1395,> 10 µM
same,IC50,DSH1,> 10 µM
same,IC50,NCI-H2122,6.62 µM
same,IC50,EW-1,> 10 µM
same,IC50,SK-N-AS,1080 nM
same,IC50,QIMR-WIL,> 10000 nM
same,IC50,FTC-133,> 10 µM
same,IC50,LN-405,> 10 µM
same,IC50,NEC8,> 10000 nM
same,IC50,SK-N-FI,8.81 µM
same,IC50,CGTH-W-1,3.86 µM
same,IC50,no-11,> 10 µM
same,IC50,EFO-21,> 10 µM
same,IC50,IST-SL1,> 10 µM
same,IC50,EOL1,41.5 nM
same,IC50,OS-RC-2,> 10 µM
same,IC50,ChaGo-K-1,> 10 µM
same,IC50,Detroit 562,> 10 µM
same,IC50,HCC 2998,5.49 µM
same,IC50,RMG-I,> 10 µM
same,IC50,MDA-MB-361,> 10 µM
same,IC50,CTV-1,> 10 µM
